In patent publication US20230210853A1 (Halia Therapeutics, Inc., priority 2020, published 2023):
Like-named read-outs stand apart in the source and are kept apart here.

Key:
[1] = target: T1, full-length recombinant human NEK7 (Homo sapiens, UniProt Q8TDX7); test: NEK7 enzymatic assay ([33P]-ATP, casein substrate); assay type: biochemical; details: recombinant human NEK7, casein substrate
T1 construct: full-length recombinant human NEK7; GST (N); purchased SignalChem N09-10G; host or cells: Sf9 insect cells (baculovirus)
Summary of the method: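 GST-tagged enzyme, baculovirus-expressed in Sf9 cells, was mixed with casein in 20 mM Hepes pH 7.5, 10 mM MgCl2, 1 mM EGTA, 0.02% Brij35, 2 mM DTT, 1% DMSO. Compounds (3-fold series, 10 μM–0.5 nM) were preincubated 20 min at RT, then [33P]-ATP was added for 2 h at RT. P81 filter-bound radioactivity was expressed as % of vehicle activity and fitted to IC50.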

IL-1β release = IL-1β release assay (PMA-differentiated THP-1 cells, LPS + nigericin, cleaved IL-1β by JESS); assay type: cell-based; details: Homo sapiens, THP-1 cells, LPS + nigericin
Method: (§1) Approximately 1.5 million THP-1 cells were plated in each well of a 6-well TC plate and incubated with 40 nM PMA in RPMI (10% FBS, 1% Penstrep) for 24 hours. The media was then removed and cells were rested in RPMI (10% FBS, 1% Penstrep) for 24 hours after which time the media was removed and cells were pre-treated for 2 hours with various concentrations of compounds of interest (typically serial 3-fold dilution in RPMI +5% FBS, concentrations ranging from 1 μM to 0.5 nM) in RPMI (5% FBS). The media was again removed and cells were incubated with 250 ng/mL LPS and compounds of interest (concentrations as above) in RMPI (5% FBS) for 2 hours. The media was removed for a last time and cells were incubated with 20 μM nigericin and compounds of interest (concentrations as above) in Opti-MEM for 30 minutes. Cell media was then collected and the amount of cleaved IL-1β was determined using a JESS instrument (Protein Simple) and standard protocols. Cleaved 1-PD antibody was obtained from Cell Signaling (catalogue #83186S) and was used at 1:20 dilution in antibody diluent 2. Protein Simple 1× anti-Rabbit HRP secondary antibody was used along with Protein Simple luminol and peroxide for chemiluminescent detection. Primary antibody incubation time was increased from 30 minutes to 60 minutes.
as §1, with “RPMI+5%” for “RPMI +5%”, “Il-1β” for “1-PD”

[2] = Table 2b, read-out: Il-1β release IC50
[3] = 48 h, Table 2d, read-out: IL-1β release IC50
[4] = Table 2e, read-out: IL-1β release IC50

T1 sequence (Q8TDX7 whole entry): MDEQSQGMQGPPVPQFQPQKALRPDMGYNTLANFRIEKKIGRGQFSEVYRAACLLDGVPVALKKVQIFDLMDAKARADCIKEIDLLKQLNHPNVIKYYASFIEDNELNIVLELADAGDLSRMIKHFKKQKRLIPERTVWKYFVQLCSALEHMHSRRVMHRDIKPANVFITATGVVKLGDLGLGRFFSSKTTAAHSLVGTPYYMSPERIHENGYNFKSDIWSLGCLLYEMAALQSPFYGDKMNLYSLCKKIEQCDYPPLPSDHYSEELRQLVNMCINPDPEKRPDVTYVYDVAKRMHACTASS

Row | Structure (SMILES) | IC50 ([1]; Table 2d) | IC50 (IL-1β release; [3]) | IC50 ([1]; Table 2e) | IC50 (IL-1β release; [4]) | further results
1 | Nc1nccc2c1c(-c1ccc(NC(=O)Nc3cc(C4(C(F)(F)F)CC4)no3)c(F)c1)nn2C1CC1 [Ia-45, 1-(4-(4-amino-1-cyclopropyl-1H-pyrazolo[4,3-c]pyridin-3-yl)-2-fluorophenyl)-3-(3-(1-(trifluoromethyl)cyclopropyl)isoxazol-5-yl)urea] | – | – | – | – | IC50 ([1]; Table 2a): 151 to 300 nM; IC50 (IL-1β release; Table 2a, read-out: II-1β release IC50): 151 to 300 nM
2 | Cc1c[nH]c2nccc(Oc3ccc(NC(=O)Nc4cc(C(C)(C)C)nn4-c4ccccc4)c(F)c3)c12 [Ib-4, 1-(3-(tert-butyl)-1-phenyl-1H-pyrazol-5-yl)-3-(2-fluoro-4-((3-methyl-1H-pyrrolo[2,3-b]pyridin-4-yl)oxy)phenyl)urea] | – | – | – | – | IC50 ([1]; Table 2b): 501 to 1500 nM; IC50 (IL-1β release; [2]): < 150 nM
3 | Cc1cc2c(Oc3ccc(NC(=O)Nc4cc(C(C)(C)C)nn4-c4ccccc4)c(F)c3)ccnc2[nH]1 [Ib-5, 1-(3-(tert-butyl)-1-phenyl-1H-pyrazol-5-yl)-3-(2-fluoro-4-((2-methyl-1H-pyrrolo[2,3-b]pyridin-4-yl)oxy)phenyl)urea] | – | – | – | – | IC50 ([1]; Table 2b): > 1500 nM; IC50 (IL-1β release; [2]): 151 to 300 nM
4 | CC(C)(C)c1cc(NC(=O)Nc2c(F)cc(Oc3ccnc4[nH]cc(Cl)c34)cc2F)n(-c2ccccc2)n1 [Ib-8] | – | – | – | – | IC50 ([1]; Table 2b): > 1500 nM; IC50 (IL-1β release; [2]): 301 to 500 nM
5 | CC(C)(C)c1cc(NC(=O)Nc2ccc(Oc3ccnc4[nH]cc(Cl)c34)c(F)c2)n(-c2ccccc2)n1 [Ib-12, 1-(3-(tert-butyl)-1-phenyl-1H-pyrazol-5-yl)-3-(4-((3-chloro-1H-pyrrolo[2,3-b]pyridin-4-yl)oxy)-3-fluorophenyl)urea] | – | – | – | – | IC50 ([1]; Table 2b): 501 to 1500 nM; IC50 (IL-1β release; [2]): < 150 nM
6 | Cc1[nH]c2nccc(Oc3ccc(NC(=O)Nc4cc(C(C)(C)C)nn4-c4ccccc4)c(F)c3)c2c1Cl [Ib-14] | – | – | – | – | IC50 ([1]; Table 2b): 501 to 1500 nM; IC50 (IL-1β release; [2]): > 1000 nM
7 | CC(C)(C)c1cc(NC(=O)Nc2ccc(Oc3ccnc4[nH]cc(C5CC5)c34)cc2F)n(-c2ccccc2)n1 [Ib-18, 1-(3-(tert-butyl)-1-phenyl-1H-pyrazol-5-yl)-3-(4-((3-cyclopropyl-1H-pyrrolo[2,3-b]pyridin-4-yl)oxy)-2-fluorophenyl)urea] | – | – | – | – | IC50 ([1]; Table 2b): 501 to 1500 nM; IC50 (IL-1β release; [2]): < 150 nM
8 | Nc1ncnc2c1c(-c1ccc(NC(=O)Nc3ccc(CN4CCOCC4)c(C(F)(F)F)c3)c(F)c1)cn2C1CC1 [Id-31, 1-(4-(4-amino-7-cyclopropyl-7H-pyrrolo[2,3-d]pyrimidin-5-yl)-2-fluorophenyl)-3-(4-(morpholinomethyl)-3-(trifluoromethyl)phenyl)urea] | 501 to 1500 nM | 301 to 500 nM | – | – | –
9 | CN1CCN(C(=O)c2ccc(NC(=O)Nc3ccc(-c4nn(C5CC5)c5ncnc(N)c45)cc3F)cc2C(F)(F)F)CC1 [Id-48] | 151 to 300 nM | > 1000 nM | – | – | –
10 | CCN1CCN(Cc2ccc(NC(=O)Nc3ccc(Oc4ccnc5[nH]cc(Cl)c45)cc3F)cc2C(F)(F)F)CC1 [Ie-9, 1-(4-((3-chloro-1H-pyrrolo[2,3-b]pyridin-4-yl)oxy)-2-fluorophenyl)-3-(4-((4-ethylpiperazin-1-yl)methyl)-3-(trifluoromethyl)phenyl)urea] | – | – | 501 to 1500 nM | < 150 nM | –
11 | CN1CCN(Cc2ccc(NC(=O)Nc3ccc(Oc4ccnc5[nH]cc(C6CC6)c45)cc3F)cc2C(F)(F)F)CC1 [Ie-26, 1-(4-((3-cyclopropyl-1H-pyrrolo[2,3-b]pyridin-4-yl)oxy)-2-fluorophenyl)-3-(4-((4-methylpiperazin-1-yl)methyl)-3-(trifluoromethyl)phenyl)urea] | – | – | 501 to 1500 nM | < 150 nM | –
12 | Cc1[nH]c2nccc(Oc3ccc(NC(=O)Nc4ccc(CN5CCN(C)CC5)c(C(F)(F)F)c4)c(F)c3)c2c1Cl [Ie-27, 1-(4-((3-chloro-2-methyl-1H-pyrrolo[2,3-b]pyridin-4-yl)oxy)-2-fluorophenyl)-3-(4-((4-methylpiperazin-1-yl)methyl)-3-(trifluoromethyl)phenyl)urea] | – | – | 301 to 500 nM | < 150 nM | –

Continued, in another order:

Row | IC50 ([1]; Table 2d) | IC50 (IL-1β release; [3]) | IC50 ([1]; Table 2e) | IC50 (IL-1β release; [4]) | Structure (SMILES) | further results
13 | < 150 nM | < 150 nM | – | – | CN1CCN(Cc2ccc(NC(=O)Nc3ccc(-c4nn(C5CC5)c5ncnc(N)c45)cc3F)cc2F)CC1 [Id-27, 1-(4-(4-amino-1-cyclopropyl-1H-pyrazolo[3,4-d]pyrimidin-3-yl)-2-fluorophenyl)-3-(3-fluoro-4-((4-methylpiperazin-1-yl)methyl)phenyl)urea] | –
14 | < 150 nM | < 150 nM | – | – | CN1CCN(Cc2ccc(NC(=O)Nc3ccc(-c4nn(CC(C)(C)O)c5ncnc(N)c45)cc3F)cc2C(F)(F)F)CC1 [Id-28, 1-(4-(4-amino-1-(2-hydroxy-2-methylpropyl)-1H-pyrazolo[3,4-d]pyrimidin-3-yl)-2-fluorophenyl)-3-(4-((4-methylpiperazin-1-yl)methyl)-3-(trifluoromethyl)phenyl)urea] | –
15 | < 150 nM | < 150 nM | – | – | CN1CCN(Cc2ccc(NC(=O)Nc3ccc(-c4nn(C5CC5)c5ccnc(N)c45)cc3F)cc2C(F)(F)F)CC1 [Id-30, 1-(4-(4-amino-1-cyclopropyl-1H-pyrazolo[4,3-c]pyridin-3-yl)-2-fluorophenyl)-3-(4-((4-methylpiperazin-1-yl)methyl)-3-(trifluoromethyl)phenyl)urea] | –
16 | < 150 nM | < 150 nM | – | – | CN1CCN(Cc2ccc(NC(=O)Nc3ccc(-c4cn(C5CC5)c5ncnc(N)c45)cc3F)cc2C(F)(F)F)CC1 [Id-33, 1-(4-(4-amino-7-cyclopropyl-7H-pyrrolo[2,3-d]pyrimidin-5-yl)-2-fluorophenyl)-3-(4-((4-methylpiperazin-1-yl)methyl)-3-(trifluoromethyl)phenyl)urea] | –
17 | < 150 nM | < 150 nM | – | – | CCN1CCN(Cc2ccc(NC(=O)Nc3ccc(-c4nn(C5CC5)c5ncnc(N)c45)cc3F)cc2C(F)(F)F)CC1 [Id-49] | –
18 | – | – | 151 to 300 nM | < 150 nM | CN1CCN(Cc2ccc(NC(=O)Nc3ccc(Oc4ccnc5[nH]cc(Cl)c45)cc3F)cc2C(F)(F)F)CC1 [Ie-1, 1-(4-((3-chloro-1H-pyrrolo[2,3-b]pyridin-4-yl)oxy)-2-fluorophenyl)-3-(4-((4-methylpiperazin-1-yl)methyl)-3-(trifluoromethyl)phenyl)urea] | –
19 | – | – | 151 to 300 nM | < 150 nM | CN1CCC(Oc2ccc(NC(=O)Nc3ccc(Oc4ccnc5[nH]cc(Cl)c45)cc3F)cc2C(F)(F)F)CC1 [Ie-16, 1-(4-((3-chloro-1H-pyrrolo[2,3-b]pyridin-4-yl)oxy)-2-fluorophenyl)-3-(4-((1-methylpiperidin-4-yl)oxy)-3-(trifluoromethyl)phenyl)urea] | –
20 | – | – | 301 to 500 nM | < 150 nM | CN1CCC(=Cc2ccc(NC(=O)Nc3ccc(Oc4ccnc5[nH]cc(Cl)c45)cc3F)cc2C(F)(F)F)CC1 [Ie-20, 1-(4-((3-chloro-1-pyrrolo[2,3-b]pyridin-4-yl)oxy)-2-fluorophenyl)-3-(4-((1-methylpiperidin-4-ylidene)methyl)-3-(trifluoromethyl)phenyl)urea] | –
21 | – | – | 151 to 300 nM | 151 to 300 nM | Cc1c[nH]c2nccc(Oc3ccc(NC(=O)Nc4ccc(CN5CCN(C)CC5)c(C(F)(F)F)c4)c(F)c3)c12 [Ie-28, 1-(2-fluoro-4-((3-methyl-1H-pyrrolo[2,3-b]pyridin-4-yl)oxy)phenyl)-3-(4-((4-methylpiperazin-1-yl)methyl)-3-(trifluoromethyl)phenyl)urea] | –
